Target: T1, human GABA A receptor α5β3γ2 (Homo sapiens, UniProt P18507+P31644)
T1 construct: expressed in transfected cells; host or cells: HEK293 cells, transiently transfected; membranes prepared from them
Assay: [3H]flumazenil competition binding, HEK293 cells expressing human GABA A α5β3γ2 receptors
Settings: human α5β3γ2 in HEK293 (transiently transfected), 0.5 nM [3H]flumazenil, mean of two determinations; read-out: Ki[nM] hα5
Protocol: Membrane Preparation and Binding Assay
The affinity of compounds at GABA A receptor subtypes was measured by competition for [3H]flumazenil (85 Ci/mmol; Roche) binding to HEK293 cells expressing rat (stably transfected) or human (transiently transfected) receptors of composition α1β3γ2, α2β3γ2, α3β3γ2 and α5β3γ2.
Cell pellets were suspended in Krebs-tris buffer (4.8 mM KCl, 1.2 mM CaCl2, 1.2 mM MgCl2, 120 mM NaCl, 15 mM Tris; pH 7.5; binding assay buffer), homogenized by polytron for ca. 20 sec on ice and centrifuged for 60 min at 4° C. (50000 g; Sorvall, rotor: SM24=20000 rpm). The cell pellets were resuspended in Krebs-tris buffer and homogenized by polytron for ca. 15 sec on ice. Protein was measured (Bradford method, Bio-Rad) and aliquots of 1 mL were prepared and stored at −80° C.
Radioligand binding assays were carried out in a volume of […] (96-well plates) which contained […] of cell memebranes, [3H]flumazenil at a concentration of 1 nM for α1, α2, α3 subunits and 0.5 nM for α5 subunits and the test compound in the range of […]. Nonspecific binding was defined by 10^−5 M diazepam and typically represented less than 5% of the total binding. Assays were incubated to equilibrium for 1 hour at 4° C. and harvested onto GF/C uni-filters (Packard) by filtration using a Packard harvester and washing with ice-cold wash buffer (50 mM Tris; pH 7.5). After drying, filter-retained radioactivity was detected by liquid scintillation counting. Ki values were calculated using Excel-Fit (Microsoft) and are the means of two determinations.

Work on Cc1onc(-c2ccccc2)c1C(=O)c1cc2ccccc2o1 [Example 1, Benzofuran-2-yl-(5-methyl-3-phenyl-isoxazol-4-yl)-methanone] yielded a Ki of 15.2 nM.
With Cc1onc(-c2ccccc2)c1C(=O)c1cc2cccc(F)c2o1 [Example 2, (7-Fluoro-benzofuran-2-yl)-(5-methyl-3-phenyl-isoxazol-4-yl)-methanone] the Ki was 17.8 nM.
For Cc1onc(-c2ccccc2)c1C(=O)c1cc2cccc(Br)c2o1 [Example 3, (7-Bromo-benzofuran-2-yl)-(5-methyl-3-phenyl-isoxazol-4-yl)-methanone], the Ki was 7.5 nM.
With Cc1onc(-c2ccccc2)c1C(=O)c1cc2cccc(O)c2o1 [Example 4, (7-Hydroxy-2-benzofuranyl)(5-methyl-3-phenyl-4-isoxazolyl)methanone] the Ki was 6.9 nM.
COc1cccc2cc(C(=O)c3c(-c4ccccc4)noc3C)oc12 [Example 5, (7-Methoxy-benzofuran-2-yl)-(5-methyl-3-phenyl-isoxazol-4-yl)-methanone] gave a Ki of 4 nM.
Work on CCOc1cccc2cc(C(=O)c3c(-c4ccccc4)noc3C)oc12 [Example 6, (7-Ethoxy-benzofuran-2-yl)-(5-methyl-3-phenyl-isoxazol-4-yl)-methanone] yielded a Ki of 6.5 nM.
Cc1onc(-c2ccccc2)c1C(=O)c1cc2cccc(OCc3ccccn3)c2o1 [Example 8, (5-Methyl-3-phenyl-isoxazol-4-yl)-[7-(pyridin-2-ylmethoxy)-benzofuran-2-yl]-methanone] gave a Ki of 16.7 nM.
Cc1onc(-c2ccccc2)c1C(=O)c1cc2cccc(OCc3cccnc3)c2o1 [Example 9, (5-Methyl-3-phenyl-isoxazol-4-yl)-[7-(pyridin-3-ylmethoxy)-benzofuran-2-yl]-methanone] was tested, and the Ki was 31.3 nM.
In the case of Cc1onc(-c2ccccc2)c1C(=O)c1cc2cccc(OCc3ccncc3)c2o1 [Example 10, (5-Methyl-3-phenyl-isoxazol-4-yl)-[7-(pyridin-4-ylmethoxy)-benzofuran-2-yl]-methanone], the Ki is reported as 27.9 nM.
Cc1onc(-c2ccccc2)c1C(=O)c1cc2cccc(OCC(=O)NC(C)C)c2o1 [Example 13, N-Isopropyl-2-[2-(5-methyl-3-phenyl-isoxazole-4-carbonyl)-benzofuran-7-yloxy]-acetamide] was tested, and the Ki was 1.8 nM.
For Cc1onc(-c2ccccc2)c1C(=O)c1cc2cccc(OCc3ncnn3C)c2o1 [Example 14, (5-Methyl-3-phenyl-isoxazol-4-yl)-[7-(2-methyl-2H-[1,2,4]triazol-3-ylmethoxy)-benzofuran-2-yl]-methanone], the Ki was 13.8 nM.
Cc1cc(COc2cccc3cc(C(=O)c4c(-c5ccccc5)noc4C)oc23)on1 [Example 15, [7-(3-Methyl-isoxazol-5-ylmethoxy)-benzofuran-2-yl]-(5-methyl-3-phenyl-isoxazol-4-yl)-methanone] showed a Ki of 18.9 nM.
Cc1onc(-c2ccccc2)c1C(=O)c1cc2ccc(O)cc2o1 [Example 16, (6-Hydroxy-benzofuran-2-yl)-(5-methyl-3-phenyl-isoxazol-4-yl)-methanone] gave a Ki of 3.7 nM.
For COc1ccc2cc(C(=O)c3c(-c4ccccc4)noc3C)oc2c1 [Example 17, (6-Methoxy-benzofuran-2-yl)-(5-methyl-3-phenyl-isoxazol-4-yl)-methanone], the Ki was 3.5 nM.
With Cc1onc(-c2ccccc2)c1C(=O)c1cc2cc(Cl)ccc2o1 [Example 19, (5-Chloro-benzofuran-2-yl)-(5-methyl-3-phenyl-isoxazol-4-yl)-methanone] the Ki was 20 nM.
Cc1onc(-c2ccccc2)c1C(=O)c1cc2cc(Br)ccc2o1 [Example 20, (5-Bromo-benzofuran-2-yl)-(5-methyl-3-phenyl-isoxazol-4-yl)-methanone] gave a Ki of 41.6 nM.
COc1ccc2oc(C(=O)c3c(-c4ccccc4)noc3C)cc2c1 [Example 22, (5-Methoxy-benzofuran-2-yl)-(5-methyl-3-phenyl-isoxazol-4-yl)-methanone] gave a Ki of 4.6 nM.
In the case of Cc1onc(-c2ccccc2)c1C(=O)c1cc2cc(OC(F)(F)F)ccc2o1 [Example 23, (5-Methyl-3-phenyl-isoxazol-4-yl)-(5-trifluoromethoxy-benzofuran-2-yl)-methanone], the Ki is reported as 10.1 nM.
COc1cccc2oc(C(=O)c3c(-c4ccccc4)noc3C)cc12 [Example 25, (4-Methoxy-benzofuran-2-yl)-(5-methyl-3-phenyl-isoxazol-4-yl)-methanone] showed a Ki of 10.6 nM.
COc1cc(OC)c2cc(C(=O)c3c(-c4ccccc4)noc3C)oc2c1 [Example 26, (4,6-Dimethoxy-benzofuran-2-yl)-(5-methyl-3-phenyl-isoxazol-4-yl)-methanone] was tested, and the Ki was 4.3 nM.
Cc1onc(-c2ccccc2)c1C(=O)c1cc2c(ccc3ccccc32)o1 [Example 27, (5-Methyl-3-phenyl-isoxazol-4-yl)-naphtho[2,1-b]furan-2-yl-methanone] gave a Ki of 13.7 nM.
In the case of Cc1onc(-c2ccc(Br)cc2)c1C(=O)c1cc2ccccc2o1 [Example 28, Benzofuran-2-yl-[3-(4-bromo-phenyl)-5-methyl-isoxazol-4-yl]-methanone], the Ki is reported as 8.1 nM.
In the case of Cc1onc(-c2ccc(Br)cc2)c1C(=O)c1cc2cccc(F)c2o1 [Example 29, [3-(4-Bromo-phenyl)-5-methyl-isoxazol-4-yl]-(7-fluoro-benzofuran-2-yl)-methanone], the Ki is reported as 11.7 nM.
Cc1onc(-c2ccc(Br)cc2)c1C(=O)c1cc2cccc(O)c2o1 [Example 30, [3-(4-Bromo-phenyl)-5-methyl-isoxazol-4-yl]-(7-hydroxy-benzofuran-2-yl)-methanone] gave a Ki of 17.4 nM.
Compound COc1cccc2cc(C(=O)c3c(-c4ccc(Br)cc4)noc3C)oc12 [Example 31, [3-(4-Bromo-phenyl)-5-methyl-isoxazol-4-yl]-(7-methoxy-benzofuran-2-yl)-methanone] has a Ki of 3.7 nM.
In the case of CCOc1cccc2cc(C(=O)c3c(-c4ccc(Br)cc4)noc3C)oc12 [Example 32, [3-(4-Bromo-phenyl)-5-methyl-isoxazol-4-yl]-(7-ethoxy-benzofuran-2-yl)-methanone], the Ki is reported as 9.4 nM.
With Cc1onc(-c2ccc(Br)cc2)c1C(=O)c1cc2cccc(OC(C)C)c2o1 [Example 33, [3-(4-Bromo-phenyl)-5-methyl-isoxazol-4-yl]-(7-isopropoxy-benzofuran-2-yl)-methanone] the Ki was 32.9 nM.
Compound Cc1onc(-c2ccc(Br)cc2)c1C(=O)c1cc2cccc(OCc3ccccn3)c2o1 [Example 34, [3-(4-Bromo-phenyl)-5-methyl-isoxazol-4-yl]-[7-(pyridin-2-ylmethoxy)-benzofuran-2-yl]-methanone] has a Ki of 36.3 nM.
Work on Cc1onc(-c2ccc(Br)cc2)c1C(=O)c1cc2cccc(OCc3cccnc3)c2o1 [Example 35, [3-(4-Bromo-phenyl)-5-methyl-isoxazol-4-yl]-[7-(pyridin-3-ylmethoxy)-benzofuran-2-yl]-methanone] yielded a Ki of 36.4 nM.
Compound Cc1onc(-c2ccc(Br)cc2)c1C(=O)c1cc2cccc(OCc3ccncc3)c2o1 [Example 36, [3-(4-Bromo-phenyl)-5-methyl-isoxazol-4-yl]-[7-(pyridin-4-ylmethoxy)-benzofuran-2-yl]-methanone] has a Ki of 35.9 nM.
In the case of Cc1onc(-c2ccc(Br)cc2)c1C(=O)c1cc2cccc(OCC(=O)NC(C)C)c2o1 [Example 37, 2-{2-[3-(4-Bromo-phenyl)-5-methyl-isoxazole-4-carbonyl]-benzofuran-7-yloxy}-N-isopropyl-acetamide], the Ki is reported as 2.3 nM.
Cc1onc(-c2ccc(Br)cc2)c1C(=O)c1cc2cccc(OCc3ncnn3C)c2o1 [Example 38, [3-(4-Bromo-phenyl)-5-methyl-isoxazol-4-yl]-[7-(2-methyl-2H-[1,2,4]triazol-3-ylmethoxy)-benzofuran-2-yl]-methanone] showed a Ki of 15.1 nM.
With Cc1cc(COc2cccc3cc(C(=O)c4c(-c5ccc(Br)cc5)noc4C)oc23)on1 [Example 39, [3-(4-Bromo-phenyl)-5-methyl-isoxazol-4-yl]-[7-(3-methyl-isoxazol-5-ylmethoxy)-benzofuran-2-yl]-methanone] the Ki was 63.8 nM.
Cc1onc(-c2ccc(Br)cc2)c1C(=O)c1cc2ccc(O)cc2o1 [Example 40, [3-(4-Bromo-phenyl)-5-methyl-isoxazol-4-yl]-(6-hydroxy-benzofuran-2-yl)-methanone] was tested, and the Ki was 9.3 nM.
COc1ccc2cc(C(=O)c3c(-c4ccc(Br)cc4)noc3C)oc2c1 [Example 41, [3-(4-Bromo-phenyl)-5-methyl-isoxazol-4-yl]-(6-methoxy-benzofuran-2-yl)-methanone] gave a Ki of 3.1 nM.
Cc1onc(-c2ccc(Br)cc2)c1C(=O)c1cc2cc(O)ccc2o1 [Example 42, [3-(4-Bromo-phenyl)-5-methyl-isoxazol-4-yl]-(5-hydroxy-benzofuran-2-yl)-methanone] showed a Ki of 4.6 nM.
With COc1ccc2oc(C(=O)c3c(-c4ccc(Br)cc4)noc3C)cc2c1 [Example 43, [3-(4-Bromo-phenyl)-5-methyl-isoxazol-4-yl]-(5-methoxy-benzofuran-2-yl)-methanone] the Ki was 2.9 nM.
COc1cccc2oc(C(=O)c3c(-c4ccc(Br)cc4)noc3C)cc12 [Example 44, [3-(4-Bromo-phenyl)-5-methyl-isoxazol-4-yl]-(4-methoxy-benzofuran-2-yl)-methanone] gave a Ki of 4.8 nM.

— patent US7388025B2, “3-aryl-isoxazole-4-carbonyl-benzofuran derivatives” (Hoffman-La Roche Inc., priority 2005, dated 2008)
